Measured values reported in ChEMBL document CHEMBL5728275 (2021).

Target: Dihydroorotate dehydrogenase (quinone), mitochondrial (Homo sapiens, UniProt Q02127)
Test: Method for Testing Activities of Compounds at Enzyme Level: Principles of activity test at enzyme level: firstly, dihydroorotate (DHO) is oxidatively dehydrogenated by DHODH to form orotic acid (Orotate, OA), accompanied by reduction of Flavin mononucleotide (FMN) into reduced flavin mononucleotide (FMNH2) by accepting 2H+ and 2e−, then coenzyme Q (CoQ) as hydrogen acceptor accepting electron and proton from FMNH2 is reduced into reduced coenzyme Q (CoQH2), reduced coenzyme Q transfers electrons to a chromogenic substrate, […] (DCIP), and finally DCIP was reduced. […] The degree to which the substrate DHO is oxidized can be judged based on the degree of decrease in absorbance. The degree of oxidation of the substrate DHO per unit time is the initial rate of the enzymatic reaction. […] Substrate DHO was added to start the reaction with a DHO final concentration of 500 μM. The absorbance was read at 600 nm using a BioTek microplate reader and read every 30 s for 6 min. […] For calculating IC50 of a compound, Origin 8.0 was used to test the inhibition rate at least 8 concentrations.
Type: single protein

Chain of Dihydroorotate dehydrogenase (quinone), mitochondrial (Q02127 whole entry): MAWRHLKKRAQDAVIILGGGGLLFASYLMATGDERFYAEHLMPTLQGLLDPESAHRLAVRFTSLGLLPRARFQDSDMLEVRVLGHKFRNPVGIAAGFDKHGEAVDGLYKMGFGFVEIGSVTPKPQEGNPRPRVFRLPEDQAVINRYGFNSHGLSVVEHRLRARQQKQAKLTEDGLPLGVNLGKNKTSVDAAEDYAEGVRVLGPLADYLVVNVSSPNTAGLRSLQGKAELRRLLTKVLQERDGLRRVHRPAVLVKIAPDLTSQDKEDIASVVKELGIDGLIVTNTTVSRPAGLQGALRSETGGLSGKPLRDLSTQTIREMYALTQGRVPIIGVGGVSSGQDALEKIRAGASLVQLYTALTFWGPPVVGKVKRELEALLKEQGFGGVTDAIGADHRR

SMILES	IC50
O=C(OCCc1ccccc1)c1ccccc1/C=N/Nc1nc(-c2ccccc2Cl)cs1	> 50 µM
Cc1sc(N(C)/N=C/c2ccccc2C(=O)O)nc1-c1ccccc1Cl	0.0355 µM
CN(/N=C/c1ccccc1C(=O)OCCc1ccccc1)c1nc(-c2ccccc2Cl)cs1	> 50 µM
